Assay results as given in ChEMBL document CHEMBL3885861, “Open TG-GATES”.

Species on record: Rattus norvegicus
Test: Open TG-GATES - Regimen: Single
Type: toxicity, organism-based, Sprague-Dawley
Design: regimen Single, gender Male, age 6 weeks
Details: in vivo, po, 150 mg/kg, route gavage, dose level High; for APTT / Bas / Eos / Fbg / Hb / Ht / Lym / MCH / MCHC / MCV / Mono / Neu / PT / Plat / RBC / Ret / WBC: tissue Blood; for KIDNEY_L / KIDNEY_R / KIDNEY_TOTAL: tissue Kidney; for LIVER: tissue Liver; for A/G / ALP / ALT / AST / BUN / CRE / Ca / Cl / DBIL / GLC / IP / K / LDH / Na / PL / RALB / TBIL / TC / TG / TP / gamma-GTP: tissue Plasma

Compound: O=c1ccc2ccccc2o1 [COUMARIN]
- TERMINAL_BW (3 h): 182 g
- APTT (3 h): 16 s
- Bas (3 h): 0%
- Eos (3 h): 0.6%
- Fbg (3 h): 201.2 mg/dL
- Hb (3 h): 13.9 g/dL
- Ht (3 h): 42.2%
- Lym (3 h): 73.6%
- MCH (3 h): 22.2 pg
- MCHC (3 h): 33%
- MCV (3 h): 67.3 fL
- Mono (3 h): 5%
- Neu (3 h): 20.8%
- PT (3 h): 12.6 s
- Plat (3 h): 131.8 x10_4/uL
- RBC (3 h): 627.6 x10_4/ul
- Ret (3 h): 9.9%
- WBC (3 h): 86 x10_2/uL
- KIDNEY_L (3 h): 0.8 g
- KIDNEY_R (3 h): 0.9 g
- KIDNEY_TOTAL (3 h): 1.7 g
- LIVER (3 h): 8.3 g
- A/G (3 h): 2.1
- ALP (3 h): 1017.8 IU/L
- ALT (3 h): 45.4 IU/L
- AST (3 h): 76.4 IU/L
- BUN (3 h): 11.4 mg/dL
- CRE (3 h): 0.4 mg/dL
- Ca (3 h): 10.7 mg/dL
- Cl (3 h): 100.6 meq/L
- DBIL (3 h): 0 mg/dL
- GLC (3 h): 220.8 mg/dL
- IP (3 h): 11.2 mg/dL
- K (3 h): 4.3 meq/L
- LDH (3 h): 175 IU/L
- Na (3 h): 137.8 meq/L
- PL (3 h): 158.4 mg/dL
- RALB (3 h): 3.8 g/dL
- TBIL (3 h): 0.2 mg/dL
- TC (3 h): 89.6 mg/dL
- TG (3 h): 53 mg/dL
- TP (3 h): 5.7 g/dL
- gamma-GTP (3 h): 1.6 IU/L
- TERMINAL_BW (6 h): 176.6 g
- APTT (6 h): 16.5 s
- Bas (6 h): 0%
- Eos (6 h): 0.6%
- Fbg (6 h): 210.4 mg/dL
- Hb (6 h): 14.8 g/dL
- Ht (6 h): 44.4%
- Lym (6 h): 68.4%
- MCH (6 h): 21.4 pg
- MCHC (6 h): 33.2%
- MCV (6 h): 64.4 fL
- Mono (6 h): 7.4%
- Neu (6 h): 24.2%
- PT (6 h): 13 s
- Plat (6 h): 111.1 x10_4/uL
- RBC (6 h): 690.2 x10_4/ul
- Ret (6 h): 8.7%
- WBC (6 h): 61.8 x10_2/uL
- KIDNEY_L (6 h): 0.8 g
- KIDNEY_R (6 h): 0.8 g
- KIDNEY_TOTAL (6 h): 1.6 g
- LIVER (6 h): 7.3 g
- A/G (6 h): 2.2
- ALP (6 h): 951.6 IU/L
- ALT (6 h): 45.2 IU/L
- AST (6 h): 77.6 IU/L
- BUN (6 h): 16 mg/dL
- CRE (6 h): 0.5 mg/dL
- Ca (6 h): 10.3 mg/dL
- Cl (6 h): 102.4 meq/L
- DBIL (6 h): 0.008 mg/dL
- GLC (6 h): 190.6 mg/dL
- IP (6 h): 10.1 mg/dL
- K (6 h): 4.5 meq/L
- LDH (6 h): 203.2 IU/L
- Na (6 h): 138 meq/L
- PL (6 h): 144.2 mg/dL
- RALB (6 h): 4 g/dL
- TBIL (6 h): 0.2 mg/dL
- TC (6 h): 94.4 mg/dL
- TG (6 h): 23.4 mg/dL
- TP (6 h): 5.9 g/dL
- gamma-GTP (6 h): 1.4 IU/L
- TERMINAL_BW (9 h): 175.4 g
- APTT (9 h): 16.4 s
- Bas (9 h): 0%
- Eos (9 h): 1%
- Fbg (9 h): 196.4 mg/dL
- Hb (9 h): 14.5 g/dL
- Ht (9 h): 43.8%
- Lym (9 h): 76.8%
- MCH (9 h): 21.6 pg
- MCHC (9 h): 33.1%
- MCV (9 h): 65.2 fL
- Mono (9 h): 8%
- Neu (9 h): 14.4%
- PT (9 h): 13.2 s
- Plat (9 h): 100.6 x10_4/uL
- RBC (9 h): 672.6 x10_4/ul
- Ret (9 h): 9.7%
- WBC (9 h): 79.6 x10_2/uL
- KIDNEY_L (9 h): 0.8 g
- KIDNEY_R (9 h): 0.8 g
- KIDNEY_TOTAL (9 h): 1.6 g
- LIVER (9 h): 7.3 g
- A/G (9 h): 2.1
- ALP (9 h): 950 IU/L
- ALT (9 h): 37.4 IU/L
- AST (9 h): 75.8 IU/L
- BUN (9 h): 15.2 mg/dL
- CRE (9 h): 0.5 mg/dL
- Ca (9 h): 10.6 mg/dL
- Cl (9 h): 102.4 meq/L
- DBIL (9 h): 0.04 mg/dL
- GLC (9 h): 182.8 mg/dL
- IP (9 h): 9.8 mg/dL
- K (9 h): 4.4 meq/L
- LDH (9 h): 153.2 IU/L
- Na (9 h): 137.4 meq/L
- PL (9 h): 147.2 mg/dL
- RALB (9 h): 3.8 g/dL
- TBIL (9 h): 0.3 mg/dL
- TC (9 h): 93 mg/dL
- TG (9 h): 22.4 mg/dL
- TP (9 h): 5.6 g/dL
- gamma-GTP (9 h): 1.2 IU/L
- TERMINAL_BW (24 h): 177.1 g
- APTT (24 h): 16 s
- Bas (24 h): 0%
- Eos (24 h): 1.2%
- Fbg (24 h): 181.2 mg/dL
- Hb (24 h): 14 g/dL
- Ht (24 h): 42%
- Lym (24 h): 77.2%
- MCH (24 h): 21.6 pg
- MCHC (24 h): 33.2%
- MCV (24 h): 65.1 fL
- Mono (24 h): 9.6%
- Neu (24 h): 12.6%
- PT (24 h): 12.9 s
- Plat (24 h): 118.7 x10_4/uL
- RBC (24 h): 645.8 x10_4/ul
- Ret (24 h): 7.5%
- WBC (24 h): 85.4 x10_2/uL
- KIDNEY_L (24 h): 0.8 g
- KIDNEY_R (24 h): 0.9 g
- KIDNEY_TOTAL (24 h): 1.7 g
- LIVER (24 h): 8.5 g
- A/G (24 h): 2.1
- ALP (24 h): 1067.4 IU/L
- ALT (24 h): 40.2 IU/L
- AST (24 h): 85.8 IU/L
- BUN (24 h): 15.6 mg/dL
- CRE (24 h): 0.6 mg/dL
- Ca (24 h): 11 mg/dL
- Cl (24 h): 105.2 meq/L
- DBIL (24 h): 0.016 mg/dL
- GLC (24 h): 179 mg/dL
- IP (24 h): 8.6 mg/dL
- K (24 h): 5.3 meq/L
- LDH (24 h): 202.8 IU/L
- Na (24 h): 137.8 meq/L
- PL (24 h): 121.2 mg/dL
- RALB (24 h): 3.7 g/dL
- TBIL (24 h): 0.4 mg/dL
- TC (24 h): 68.2 mg/dL
- TG (24 h): 42.6 mg/dL
- TP (24 h): 5.5 g/dL
- gamma-GTP (24 h): 1.2 IU/L
